Experimental data reported in US11678665B2, “Pyrazine-4-carbamate or -urea derivatives as herbicides” (Syngenta Participations AG, priority 2017, dated 2023).

Experiments:
Assay type in all cases: in vivo
[1] = tested on: Triticum aestivium (TRZAW); assay: Post-emergence herbicidal activity, TRZAW; design: key: 5=total damage to plant; 0=no damage to plant; conditions: 1000 g/ha, sprayed post-emergence (8 days cultivation), evaluated after 13 days, damage score 0-5
Method: (§1) Seeds of a variety of test species were sown in standard soil in pots: Triticum aestivium (TRZAW), Avena fatua (AVEFA), Alopecurus myosuroides (ALOMY), Echinochloa crus-galli (ECHCG), Lolium perenne (LOLPE), and Setaria faberi (SETFA). After 8 days cultivation (post-emergence) under controlled conditions in a glasshouse (at 24/16° C., day/night; 14 hours light; 65% humidity), the plants were sprayed with an aqueous spray solution derived from the formulation of the technical active ingredient in acetone/water (50:50) solution containing 0.5% Tween 20 (polyoxyethelyene sorbitan monolaurate, CAS RN 9005-64-5). The test plants were then grown in a glasshouse under controlled conditions (at 24/16° C., day/night; 14 hours light; 65% humidity) and watered twice daily. After 13 days, the test was evaluated (5=total damage to plant; 0=no damage to plant).

Avena fatua (AVEFA) [2] = assay: Pre-emergence herbicidal activity, AVEFA; design: key: 5=total damage to plant; 0=no damage to plant; conditions: 1000 g/ha, sprayed pre-emergence, evaluated after 13 days, damage score 0-5
Method: as §1, with “After” for “After 8 days”, “for one day (pre-emergence)” for “(post-emergence)”

Lolium perenne (LOLPE) [3] = assay: Pre-emergence herbicidal activity, LOLPE; design: key: 5=total damage to plant; 0=no damage to plant; conditions: 1000 g/ha, sprayed pre-emergence, evaluated after 13 days, damage score 0-5
Method: as §1, with “After” for “After 8 days”, “for one day (pre-emergence)” for “(post-emergence)”

[4] = tested on: Echinochloa crus-galli (ECHCG); assay: Post-emergence herbicidal activity, ECHCG; design: key: 5=total damage to plant; 0=no damage to plant; conditions: 1000 g/ha, sprayed post-emergence (8 days cultivation), evaluated after 13 days, damage score 0-5
Method: as §1

Avena fatua (AVEFA) [5] = assay: Post-emergence herbicidal activity, AVEFA; conditions: 1000 g/ha, sprayed post-emergence (8 days cultivation), evaluated after 13 days, damage score 0-5
Method: as §1

Setaria faberi (SETFA) [6] = assay: Post-emergence herbicidal activity, SETFA; design: key: 5=total damage to plant; 0=no damage to plant; conditions: 1000 g/ha, sprayed post-emergence (8 days cultivation), evaluated after 13 days, damage score 0-5
Method: as §1

[7] = tested on: Echinochloa crus-galli (ECHCG); assay: Pre-emergence herbicidal activity, ECHCG; conditions: 1000 g/ha, sprayed pre-emergence, evaluated after 13 days, damage score 0-5
Method: as §1, with “After” for “After 8 days”, “for one day (pre-emergence)” for “(post-emergence)”

Setaria faberi (SETFA) [8] = assay: Pre-emergence herbicidal activity, SETFA; design: key: 5=total damage to plant; 0=no damage to plant; conditions: 1000 g/ha, sprayed pre-emergence, evaluated after 13 days, damage score 0-5
Method: as §1, with “After” for “After 8 days”, “for one day (pre-emergence)” for “(post-emergence)”

[9] = tested on: Alopecurus myosuroides (ALOMY); assay: Post-emergence herbicidal activity, ALOMY; design: key: 5=total damage to plant; 0=no damage to plant; conditions: 1000 g/ha, sprayed post-emergence (8 days cultivation), evaluated after 13 days, damage score 0-5
Method: as §1

[10] = tested on: Alopecurus myosuroides (ALOMY); assay: Pre-emergence herbicidal activity, ALOMY; design: key: 5=total damage to plant; 0=no damage to plant; conditions: 1000 g/ha, sprayed pre-emergence, evaluated after 13 days, damage score 0-5
Method: as §1, with “After” for “After 8 days”, “for one day (pre-emergence)” for “(post-emergence)”

[11] = tested on: Triticum aestivium (TRZAW); assay: Pre-emergence herbicidal activity, TRZAW; design: key: 5=total damage to plant; 0=no damage to plant; conditions: 1000 g/ha, sprayed pre-emergence, evaluated after 13 days, damage score 0-5
Method: as §1, with “After” for “After 8 days”, “for one day (pre-emergence)” for “(post-emergence)”

Lolium perenne (LOLPE) [12] = assay: Post-emergence herbicidal activity, LOLPE; design: key: 5=total damage to plant; 0=no damage to plant; conditions: 1000 g/ha, sprayed post-emergence (8 days cultivation), evaluated after 13 days, damage score 0-5
Method: as §1

Compound | Control of weed species after post-emergence application: TRAZW [1] | Control of weed species after pre-emergence application: AVEFA (Avena fatua (AVEFA) [2]) | Control of weed species after pre-emergence application: LOLPE (Lolium perenne (LOLPE) [3]) | Control of weed species after post-emergence application: ECHCG [4] | Control of weed species after post-emergence application: AVEFA (Avena fatua (AVEFA) [5]) | Control of weed species after post-emergence application: SETFA (Setaria faberi (SETFA) [6]) | Control of weed species after pre-emergence application: ECHCG [7] | Control of weed species after pre-emergence application: SETFA (Setaria faberi (SETFA) [8]) | Control of weed species after post-emergence application: ALOMY [9] | Control of weed species after pre-emergence application: ALOMY [10] | Control of weed species after pre-emergence application: TRAZW [11] | Control of weed species after post-emergence application: LOLPE (Lolium perenne (LOLPE) [12])
CCC(=O)N(C(=O)CC)c1ncc(-c2cncc(F)c2)nc1C(F)(F)F [Compound I1] | 0 | 1 | 1 | 4 | 2 | 4 | 2 | 3 | 0 | 0 | 0 | 1
CCC(=O)Nc1ncc(-c2cncc(F)c2)nc1C [Compound I2] | 0 | 0 | 0 | 4 | 1 | 4 | 2 | 3 | 0 | 0 | 0 | 0
CC(=O)Nc1ncc(-c2cncc(F)c2)nc1C(F)(F)F [Compound I3, 2-(acetylamino)-3-trifluoromethyl-5-(5-fluoropyrid-3-yl)pyrazine] | 1 | 1 | 0 | 3 | 3 | 4 | 3 | 4 | 1 | 0 | 0 | 1
CC(=O)N(C(C)=O)c1ncc(-c2cncc(F)c2)nc1C(F)(F)F [Compound I4, 2-(diacetylamino)-3-trifluoromethyl-5-(5-fluoropyrid-3-yl)pyrazine] | 0 | 1 | 0 | 3 | 2 | 4 | 3 | 4 | 0 | 0 | 3 | 1
CC(=O)N(C(C)=O)c1ncc(-c2cncc(F)c2)nc1C [Compound I5, 2-(diacetylamino)-3-methyl-5-(5-fluoropyrid-3-yl)pyrazine] | 1 | 0 | 1 | 2 | 1 | – | 2 | 3 | 0 | 0 | 0 | 1
CC(=O)N(C)c1ncc(-c2cncc(F)c2)nc1C [Compound I6] | 1 | 1 | 0 | 4 | 3 | 5 | 3 | 5 | 1 | 0 | 0 | 2
CC(=O)N(C(C)=O)c1ncc(-c2cncnc2)nc1C(F)(F)F [Compound I8] | 1 | 0 | 1 | 4 | 2 | 5 | 2 | 4 | 1 | 0 | 0 | 1
CC(=O)Nc1ncc(-c2cncc(F)c2)nc1C [Compound I9] | 0 | 0 | 0 | 2 | 2 | 3 | 1 | 4 | 0 | 0 | 0 | 0
COCCC(=O)Nc1ncc(-c2cncc(F)c2)nc1C [Compound I10] | 0 | 0 | 0 | 3 | 1 | 2 | 2 | 2 | 0 | 0 | 0 | 0
COCCC(=O)N(C(=O)CCOC)c1ncc(-c2cncc(F)c2)nc1C(F)(F)F [Compound I11] | 1 | 0 | 0 | 5 | 4 | 5 | 3 | 4 | 0 | 0 | 1 | 1
CCC(=O)N(C(=O)CC)c1ncc(-c2cncnc2)nc1C(F)(F)F [Compound I12] | 1 | 1 | 0 | 3 | 2 | 4 | 2 | 3 | 1 | 0 | 0 | 1
